What was measured:
[1] = molecular target: T1, human recombinant GST cleaved CSNK1D (Homo sapiens, UniProt P48730); test: Purified Enzyme Assay (ADP-Glo CSNK1D Kinase Assay); assay type: biochemical; settings: 2 nM CSNK1D; peptide substrate 150 μM; ATP 20 μM; 45 minutes at room temperature
T1 construct: GST (cleaved yes); purchased University of Dundee clone DU 19064
How it was run: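 GST-cleaved human recombinant CSNK1D phosphorylates peptide PLSRTL-pS-VASLPGL with ATP; compounds added in dose-response, 45 min at room temperature. ADP formed measured by ADP-Glo luminescence and converted to percent activity.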

human CSNK1D = molecular target: T2, human CSNK1D (Homo sapiens, UniProt P48730); test: Whole Cell nBRET CSNK1D Binding Assay; settings: living CHO cells stably expressing human CSNK1D tagged with nanoluciferase; NanoBret tracer 130 nM; 2 hours at 37 C
T2 construct: expressed in transfected cells
T2 sequence (P48730 whole entry): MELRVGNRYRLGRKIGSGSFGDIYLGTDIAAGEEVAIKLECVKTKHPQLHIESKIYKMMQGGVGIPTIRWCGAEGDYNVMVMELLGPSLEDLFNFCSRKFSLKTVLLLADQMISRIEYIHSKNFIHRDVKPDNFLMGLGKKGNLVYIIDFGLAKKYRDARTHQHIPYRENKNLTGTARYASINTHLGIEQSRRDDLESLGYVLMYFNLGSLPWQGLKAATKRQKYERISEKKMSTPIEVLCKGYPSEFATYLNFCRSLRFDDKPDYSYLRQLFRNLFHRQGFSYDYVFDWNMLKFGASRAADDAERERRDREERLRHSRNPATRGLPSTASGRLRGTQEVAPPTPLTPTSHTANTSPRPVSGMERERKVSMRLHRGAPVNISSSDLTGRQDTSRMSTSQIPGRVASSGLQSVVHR

T1 sequence (P48730 whole entry): as above

Compound: Cc1nc(-c2c(-c3ccc(F)cc3)nn3c2COC(C)(C(F)(F)F)C3)c2cn[nH]c2n1 (stereo not shown) [Example 422, 2-(4-Fluorophenyl)-6-methyl-3-(6-methyl-1H-pyrazolo[3,4-d]pyrimidin-4-yl)-6-(trifluoromethyl)-6,7-dihydro-4H-pyrazolo[5,1-c][1,4]oxazine]
- IC50 [1]: 3 nM
- IC50 (human CSNK1D): 20 nM

Compound: Fc1ccc(-c2nn3c(c2-c2ccnc4[nH]ncc24)COC2(CC2)C3)nc1 [Example 432, 2-(5-Fluoro-2-pyridyl)-3-(1H-pyrazolo[3,4-b]pyridin-4-yl)spiro[4,7-dihydropyrazolo[5,1-c][1,4]oxazine-6,1′-cyclopropane]]
- IC50 [1]: 8 nM
- IC50 (human CSNK1D): 195 nM

Compound: Fc1ccc(-c2nn3c(c2-c2ccncc2)OCCC3)cc1 [Example 438, 2-(4-Fluorophenyl)-3-(4-pyridyl)-6,7-dihydro-5H-pyrazolo[5,1-b][1,3]oxazine]
- IC50 [1]: 12 nM
- IC50 (human CSNK1D): 113 nM

Compound: CCC(=O)Nc1cc(-c2c(-c3ccc(F)cn3)nn3c2OCCC3)ccn1 [Example 439, N-(4-(2-(5-Fluoropyridin-2-yl)-6,7-dihydro-5H-pyrazolo[5,1-b][1,3]oxazin-3-yl)pyridin-2-yl)propionamide]
- IC50 [1]: 6 nM
- IC50 (human CSNK1D): 75 nM

Compound: Fc1ccc(-c2nn3c(c2-c2ccn4nccc4c2)OCCC3)nc1 [Example 440, 2-(5-Fluoropyridin-2-yl)-3-(pyrazolo[1,5-a]pyridin-5-yl)-6,7-dihydro-5H-pyrazolo[5,1-b][1,3]oxazine]
- IC50 [1]: 44 nM
- IC50 (human CSNK1D): 516 nM

Compound: CCn1ncc2cc(-c3c(-c4ccc(F)cn4)nn4c3OCCC4)cnc21 [Example 441, 3-(1-Ethyl-1H-pyrazolo[3,4-b]pyridin-5-yl)-2-(5-fluoropyridin-2-yl)-6,7-dihydro-5H-pyrazolo[5,1-b][1,3]oxazine]
- IC50 [1]: 44 nM
- IC50 (human CSNK1D): 1870 nM

Compound: CCC(=O)Nc1cc(-c2c(-c3ccc(F)cn3)nn3c2OCC(C)C3)ccn1 (stereo not shown) [Example 442, N-(4-(2-(5-Fluoropyridin-2-yl)-6-methyl-6,7-dihydro-5H-pyrazolo[5,1-b][1,3]oxazin-3-yl)pyridin-2-yl)propionamide]
- IC50 [1]: 3 nM
- IC50 (human CSNK1D): 23 nM

Compound: CC1COc2c(-c3ccn4nccc4c3)c(-c3ccc(F)cn3)nn2C1 (stereo not shown) [Example 443, 2-(5-Fluoropyridin-2-yl)-6-methyl-3-(pyrazolo[1,5-a]pyridin-5-yl)-6,7-dihydro-5H-pyrazolo[5,1-b][1,3]oxazine]
- IC50 [1]: 30 nM
- IC50 (human CSNK1D): 581 nM

Compound: CCn1ncc2cc(-c3c(-c4ccc(F)cn4)nn4c3OCC(C)C4)cnc21 (stereo not shown) [Example 444, 3-(1-Ethyl-1H-pyrazolo[3,4-b]pyridin-5-yl)-2-(5-fluoropyridin-2-yl)-6-methyl-6,7-dihydro-5H-pyrazolo[5,1-b][1,3]oxazine]
- IC50 [1]: 67 nM
- IC50 (human CSNK1D): 1590 nM

Compound: CCC(=O)Nc1cc(-c2c(-c3ccc(F)cn3)nn3c2OCCC3C)ccn1 (stereo not shown) [Example 445, N-(4-(2-(5-Fluoropyridin-2-yl)-7-methyl-6,7-dihydro-5H-pyrazolo[5,1-b][1,3]oxazin-3-yl)pyridin-2-yl)propionamide]
- IC50 [1]: 10 nM
- IC50 (human CSNK1D): 210 nM

Compound: CC1CCOc2c(-c3ccn4nccc4c3)c(-c3ccc(F)cn3)nn21 (stereo not shown) [Example 446, 2-(5-Fluoropyridin-2-yl)-7-methyl-3-(pyrazolo[1,5-a]pyridin-5-yl)-6,7-dihydro-5H-pyrazolo[5,1-b][1,3]oxazine]
- IC50 [1]: 184 nM
- IC50 (human CSNK1D): 4340 nM

Compound: CCC(=O)Nc1cc(-c2c(-c3ccc(F)cn3)nn3c2OCC(C)(C)C3)ccn1 [Example 447, N-(4-(2-(5-Fluoropyridin-2-yl)-6,6-dimethyl-6,7-dihydro-5H-pyrazolo[5,1-b][1,3]oxazin-3-yl)pyridin-2-yl)propionamide]
- IC50 [1]: 2 nM
- IC50 (human CSNK1D): 5 nM

Compound: CC1(C)COc2c(-c3ccnc4cc[nH]c34)c(-c3ccc(F)cc3)nn2C1 [Example 448, 2-(4-Fluorophenyl)-6,6-dimethyl-3-(1H-pyrrolo[3,2-b]pyridin-7-yl)-5,7-dihydropyrazolo[5,1-b][1,3]oxazine]
- IC50 [1]: 28 nM
- IC50 (human CSNK1D): 196 nM

Compound: CC1(C)COc2c(-c3ccn4nccc4c3)c(-c3ccc(F)cn3)nn2C1 [Example 449, 2-(5-Fluoropyridin-2-yl)-6,6-dimethyl-3-(pyrazolo[1,5-a]pyridin-5-yl)-6,7-dihydro-5H-pyrazolo[5,1-b][1,3]oxazine]
- IC50 [1]: 8 nM
- IC50 (human CSNK1D): 70 nM

Compound: CC1(C)COc2c(-c3ccnc4cc[nH]c34)c(-c3ccc(F)cn3)nn2C1 [Example 450, 2-(5-Fluoro-2-pyridyl)-6,6-dimethyl-3-(1H-pyrrolo[3,2-b]pyridin-7-yl)-5,7-dihydropyrazolo[5,1-b][1,3]oxazine]
- IC50 [1]: 75 nM
- IC50 (human CSNK1D): 1050 nM

Compound: Cc1cn2nccc2cc1-c1c(-c2ccc(F)cn2)nn2c1OCC(C)(C)C2 [Example 451, 2-(5-Fluoro-2-pyridyl)-6,6-dimethyl-3-(6-methylpyrazolo[1,5-a]pyridin-5-yl)-5,7-dihydropyrazolo[5,1-b][1,3]oxazine]
- IC50 [1]: 132 nM
- IC50 (human CSNK1D): 5760 nM

Compound: CCn1ncc2cc(-c3c(-c4ccc(F)cn4)nn4c3OCC(C)(C)C4)cnc21 [Example 452, 3-(1-Ethyl-1H-pyrazolo[3,4-b]pyridin-5-yl)-2-(5-fluoropyridin-2-yl)-6,6-dimethyl-6,7-dihydro-5H-pyrazolo[5,1-b][1,3]oxazine]
- IC50 [1]: 44 nM
- IC50 (human CSNK1D): 570 nM

Compound: CC1(C)COc2c(-c3ccnc4cn[nH]c34)c(-c3ccc(F)cc3)nn2C1 [Example 453, 2-(4-Fluorophenyl)-6,6-dimethyl-3-(1H-pyrazolo[4,3-b]pyridin-7-yl)-5,7-dihydropyrazolo[5,1-b][1,3]oxazine]
- IC50 [1]: 2 nM
- IC50 (human CSNK1D): 11 nM

Compound: CC1(C)COc2c(-c3ccnc4cn[nH]c34)c(-c3ccc(F)cn3)nn2C1 [Example 454, 2-(5-Fluoro-2-pyridyl)-6,6-dimethyl-3-(1H-pyrazolo[4,3-b]pyridin-7-yl)-5,7-dihydropyrazolo[5,1-b][1,3]oxazine]
- IC50 [1]: 6 nM
- IC50 (human CSNK1D): 127 nM

Compound: CCC(=O)Nc1cc(-c2c(-c3ccc(F)cc3)nn3c2OCC2(CC2)C3)ccn1 [Example 455, N-(4-(2′-(4-Fluorophenyl)-5′H,7′H-spiro[cyclopropane-1,6′-pyrazolo[5,1-b][1,3]oxazin]-3′-yl)pyridin-2-yl)propionamide]
- IC50 [1]: 1 nM
- IC50 (human CSNK1D): 1 nM

Compound: O=C(Nc1cc(-c2c(-c3ccc(F)cn3)nn3c2OCC2(CC2)C3)ccn1)C1CC1 [Example 456, N-(4-(2′-(5-Fluoropyridin-2-yl)-5′H,7′H-spiro[cyclopropane-1,6′-pyrazolo[5,1-b][1,3]oxazin]-3′-yl)pyridin-2-yl)cyclopropanecarboxamide]
- IC50 [1]: 1 nM
- IC50 (human CSNK1D): 7 nM

Compound: Fc1ccc(-c2nn3c(c2-c2ccnc4[nH]ncc24)OCC2(CC2)C3)cc1 [Example 457, 2′-(4-Fluorophenyl)-3′-(1H-pyrazolo[3,4-b]pyridin-4-yl)-5′H,7′H-spiro[cyclopropane-1,6′-pyrazolo[5,1-b][1,3]oxazine]]
- IC50 [1]: 1 nM
- IC50 (human CSNK1D): 2 nM

Compound: Fc1ccc(-c2nn3c(c2-c2ccnc4[nH]nc(Cl)c24)OCC2(CC2)C3)nc1 [Example 458, 3′-(3-Chloro-1H-pyrazolo[3,4-b]pyridin-4-yl)-2′-(5-fluoropyridin-2-yl)-5′H,7′H-spiro[cyclopropane-1,6′-pyrazolo[5,1-b][1,3]oxazine]]
- IC50 [1]: 1 nM
- IC50 (human CSNK1D): 7 nM
